± gives the expanded uncertainty stated by the source.
Experiment: mn = molality of the nth substance listed, in mol/kg
Conditions: Liquid, m2 = 0

For O [water] + NC(N)=O, which mass density (274.15 K, 101 kPa, Vibrating tube method) is on record?
The mass density was 999.899 ± 0.084 kg/m3.

And the mass density (275.15 K, 101 kPa, Vibrating tube method)?
The mass density was 999.94 ± 0.084 kg/m3.

What about the mass density (276.15 K, 101 kPa, Vibrating tube method) of the same compound?
Its mass density is 999.964 ± 0.083 kg/m3.

What about the mass density (277.15 K, 101 kPa, Vibrating tube method) of the same compound?
The mass density was 999.972 ± 0.096 kg/m3.

And the mass density (278.15 K, 101 kPa, Vibrating tube method)?
Its mass density is 999.964 ± 0.083 kg/m3.

And the mass density (278.15 K, 10000 kPa, Constant-volume piezometry)?
Its mass density is 1004.78 ± 0.18 kg/m3.

What about the mass density (278.15 K, 25000 kPa, Constant-volume piezometry) of the same compound?
The mass density was 1011.88 ± 0.26 kg/m3.

What about the mass density (278.15 K, 50000 kPa, Constant-volume piezometry) of the same compound?
Its mass density is 1023.2 ± 0.45 kg/m3.

And the mass density (278.15 K, 75000 kPa, Constant-volume piezometry)?
Its mass density is 1033.92 ± 0.66 kg/m3.

And the mass density (278.15 K, 100000 kPa, Constant-volume piezometry)?
The mass density was 1044.08 ± 0.87 kg/m3.

What about the mass density (279.15 K, 101 kPa, Vibrating tube method) of the same compound?
The mass density was 999.94 ± 0.083 kg/m3.

And the mass density (280.15 K, 101 kPa, Vibrating tube method)?
Its mass density is 999.901 ± 0.083 kg/m3.

What about the mass density (281.15 K, 101 kPa, Vibrating tube method) of the same compound?
Its mass density is 999.848 ± 0.083 kg/m3.

What about the mass density (282.15 K, 101 kPa, Vibrating tube method) of the same compound?
Its mass density is 999.781 ± 0.083 kg/m3.

And the mass density (283.15 K, 101 kPa, Vibrating tube method)?
Its mass density is 999.699 ± 0.083 kg/m3.

What about the mass density (288.15 K, 10000 kPa, Constant-volume piezometry) of the same compound?
Its mass density is 1003.66 ± 0.18 kg/m3.

And the mass density (288.15 K, 25000 kPa, Constant-volume piezometry)?
Its mass density is 1010.42 ± 0.27 kg/m3.

And the mass density (288.15 K, 50000 kPa, Constant-volume piezometry)?
The mass density was 1021.21 ± 0.46 kg/m3.

What about the mass density (288.15 K, 75000 kPa, Constant-volume piezometry) of the same compound?
The mass density was 1031.47 ± 0.67 kg/m3.

What about the mass density (288.15 K, 100000 kPa, Constant-volume piezometry) of the same compound?
Its mass density is 1041.23 ± 0.88 kg/m3.

And the mass density (298.15 K, 10000 kPa, Constant-volume piezometry)?
Its mass density is 1001.46 ± 0.19 kg/m3.

And the mass density (298.15 K, 25000 kPa, Constant-volume piezometry)?
The mass density was 1007.99 ± 0.28 kg/m3.

What about the mass density (298.15 K, 50000 kPa, Constant-volume piezometry) of the same compound?
Its mass density is 1018.44 ± 0.47 kg/m3.

And the mass density (298.15 K, 75000 kPa, Constant-volume piezometry)?
The mass density was 1028.38 ± 0.68 kg/m3.

And the mass density (298.15 K, 100000 kPa, Constant-volume piezometry)?
The mass density was 1037.86 ± 0.88 kg/m3.

What about the mass density (308.15 K, 10000 kPa, Constant-volume piezometry) of the same compound?
The mass density was 998.36 ± 0.2 kg/m3.

And the mass density (308.15 K, 25000 kPa, Constant-volume piezometry)?
The mass density was 1004.74 ± 0.29 kg/m3.

And the mass density (308.15 K, 50000 kPa, Constant-volume piezometry)?
The mass density was 1014.97 ± 0.48 kg/m3.

And the mass density (308.15 K, 75000 kPa, Constant-volume piezometry)?
The mass density was 1024.71 ± 0.69 kg/m3.

What about the mass density (308.15 K, 100000 kPa, Constant-volume piezometry) of the same compound?
The mass density was 1034.01 ± 0.89 kg/m3.

And the mass density (323.15 K, 101 kPa, Vibrating tube method)?
Its mass density is 988.03 ± 0.087 kg/m3.

And the mass density (323.15 K, 10000 kPa, Constant-volume piezometry)?
The mass density was 992.3 ± 0.21 kg/m3.

What about the mass density (323.15 K, 25000 kPa, Constant-volume piezometry) of the same compound?
Its mass density is 998.61 ± 0.3 kg/m3.

And the mass density (323.15 K, 50000 kPa, Constant-volume piezometry)?
The mass density was 1008.68 ± 0.5 kg/m3.

What about the mass density (323.15 K, 75000 kPa, Constant-volume piezometry) of the same compound?
The mass density was 1018.27 ± 0.7 kg/m3.

And the mass density (323.15 K, 100000 kPa, Constant-volume piezometry)?
Its mass density is 1027.42 ± 0.91 kg/m3.

And the mass density (333.15 K, 101 kPa, Vibrating tube method)?
The mass density was 983.191 ± 0.087 kg/m3.

Source: the NIST ThermoML archive (doi:10.1016/j.jct.2018.01.024)
